Source: publication PMC6743422, “Preclinical disposition of MGS0274 besylate, a prodrug of a potent group II metabotropic glutamate receptor agonist MGS0008 for the treatment of schizophrenia” (Pharmacology Research & Perspectives, 2019)
Like-named read-outs stand apart in the source and are kept apart here.

Experiments:
[1] = set-up: method as in PMID 17712352, PMID 11744608; details: dogs; cited from earlier work
[2] = humans, cited from earlier work; for oral bioavailability compared with parent compounds: transportable prodrugs
[3] = set-up: method as in PMID 25382826, PMID 17228865; details: rats; cited from earlier work
[4] = test system: positive and negative symptoms of schizophrenia; set-up: method as in PMID 17767166; details: phase 2 proof-of-concept trial, compared with placebo; cited from earlier work
schizophrenia = test system: schizophrenia; set-up: method as in PMID 24772351; details: phase 3 clinical trial; cited from earlier work
[5] = set-up: method as in PMID 17767166; details: humans; cited from earlier work
[6] = set-up: method as in PMID 25382826; details: monkeys; cited from earlier work
[7] = Hydrolytic activity against MGS0274 in rat serum and tissue S9 fractions; type: in vitro ADME; details: rat serum
Method: (§1) Rat, monkey, or human serum that had been pre‐incubated for 5 minutes at 37°C was spiked with MGS0274 besylate at 10 μmol/L. After incubation for 5 to 60 minutes, the reaction was terminated by adding acetonitrile/methanol/formic acid (90:10:1, v/v/v) containing [^13C2 ^15N]MGS0008, and the resultant mixture was centrifuged. Tissue S9 fractions with final protein concentrations of 0.25 mg/mL were pre‐incubated for 5 minutes at 37°C, then spiked with MGS0274 besylate at 10 μmol/L. After incubation for 1 to 5 minutes, the reaction was terminated by adding acetonitrile/methanol/formic acid (90:10:1, v/v/v) containing [^13C2 ^15N]MGS0008, and the resultant mixture was centrifuged. Aliquots of the supernatant were subjected to bioanalysis using LC‐MS/MS (see Table S1‐C). The formation rate of MGS0008 from MGS0274 in the reaction mixture was calculated using the following equation: Formation ratenmol/min/mg protein=concentration of MGS0008,nmol/mL/incubation time,min/protein concentration,mg protein/mL

[8] = Plasma protein binding in monkey plasma; type: in vitro ADME, cynomolgus monkey; details: pH 7.4, 0.1, 1, and 10 μg/mL as MGS0274, equilibrium dialysis 5 h, 37°C
Method: (§2) [^14C]MGS0008 was spiked with rat, monkey, or human plasma at final concentrations of 0.1, 1, and 10 μg/mL. The protein binding was evaluated according to a previously published method.11 MGS0274 besylate was spiked with monkey or human plasma at final concentrations of 0.1, 1, and 10 μg/mL as MGS0274, which was placed in a donor compartment of a 96‐well equilibrium dialysis plate (Dialysis Membrane Strips MWCO 12‐14K; HT Dialysis, Gales Ferry, CT). Sodium phosphate buffer (0.05 M, pH7.4) containing sodium chloride (0.07 M) was placed in a reservoir compartment. After incubation for 5 hours at a rate of 100 rpm at 37°C in humidified air‐5% CO2, aliquots of the plasma and dialysate were collected from each compartment, mixed with acetonitrile/methanol (9:1, v/v) containing [^2H4]MGS0274 besylate, and centrifuged. Aliquots of the supernatant were subjected to bioanalysis using liquid chromatography‐tandem mass spectrometry (LC‐MS/MS) (see Table S1‐A). The protein binding (%) was calculated based on the instruction manual of the 96‐well plate.

[9] = test system: monkey cryopreserved hepatocytes; assay: In vitro metabolite profiling in monkey cryopreserved hepatocytes; type: in vitro ADME; details: monkey hepatocytes 0.5 million cells/mL, 37°C, 1 h, [14C]MGS0274 besylate 10 μmol/L
Method: (§3) Rat, monkey, or human cryopreserved hepatocytes in Leivovitz L‐15 medium at 0.5 million cells/mL were incubated at 37°C for 1 hour with [^14C]MGS0274 besylate at 10 μmol/L. The reaction was terminated by adding 10% w/v trichloroacetic acid solution, and the resultant mixture was centrifuged. Aliquots of the supernatant were subjected to bioanalysis using high‐performance liquid chromatography equipped with radiochemical flow detection (RI‐HPLC) (see Table S1‐B). Aliquots of the supernatant from unlabeled incubation samples and authentic standards were also injected into a liquid chromatography‐mass spectrometry (LC‐MS) system under the same chromatographic conditions to compare their chromatographic retention times and mass spectral data (see Table S1‐B).

Stability in buffers = type: physicochemical; details: pH 1.2 and 6.5 as surrogate for gastrointestinal fluids; data not shown
[10] = test system: human cryopreserved hepatocytes; assay: In vitro metabolite profiling in human cryopreserved hepatocytes; type: in vitro ADME; details: human hepatocytes 0.5 million cells/mL, 37°C, 1 h, [14C]MGS0274 besylate 10 μmol/L
Method: as §3

[11] = Hydrolytic activity against MGS0274 in monkey serum and tissue S9 fractions; type: in vitro ADME; details: monkey serum
Method: as §1

[12] = test system: rat cryopreserved hepatocytes; assay: In vitro metabolite profiling in rat cryopreserved hepatocytes; type: in vitro ADME; details: rat hepatocytes 0.5 million cells/mL, 37°C, 1 h, [14C]MGS0274 besylate 10 μmol/L
Method: as §3

[13] = Hydrolytic activity against MGS0274 in human serum and tissue S9 fractions; type: in vitro ADME
Method: as §1

[14] = Plasma protein binding in human plasma; type: in vitro ADME; details: pH 7.4, 0.1, 1, and 10 μg/mL as MGS0274, equilibrium dialysis 5 h, 37°C
Method: as §2

[15] = set-up: method as in earlier work; details: cited from earlier work
CYP1A2 mRNA = assay: CYP induction in primary cultured cryopreserved human hepatocytes, CYP1A2 mRNA; type: in vitro ADME; details: positive control omeprazole 50 μM
Method: (§4) The primary cultured cryopreserved human hepatocytes were plated in a collagen‐coated 96‐well plate (Becton Dickinson, Franklin Lakes, NJ) with Williams’ Medium E (Invitrogen, Carlsbad, CA) containing Geltrex^TM (Invitrogen) and Maintenance Supplements (Invitrogen) and maintained in humidified air‐5% CO2 at 37°C for 3 days. Then, the cells were cultured for three consecutive 24‐hour treatments with MGS0008 (3‐30 µmol/L), with MGS0274 besylate (3‐30 µmol/L), or with positive controls (omeprazole for CYP1A2 at 50 µmol/L, phenobarbital for CYP2B6 at 1000 µmol/L, or rifampicin for CYP3A4 at 10 µmol/L). The mRNA expression levels of CYP1A2, 2B6, and 3A4 were measured using the real‐time polymerase chain reaction (RT‐PCR) method (7500 Fast RT‐PCR system; Applied Biosystems, Foster City, CA) with TaqMan® Fast Universal PCR Master Mix (probe ID: Hs00167927_m1 for CYP1A2, Hs04183483_g1 for CYP2B6, and Hs00604506_ml for CYP3A4; Applied Biosystems). The fold change in the mRNA expression was calculated using the 2^‐ΔΔCT method.22

CYP2B6 mRNA = assay: CYP induction in primary cultured cryopreserved human hepatocytes, CYP2B6 mRNA; details: positive control phenobarbital 1000 μM
Method: as §4

For `N[C@@]1(C(=O)O)CC[C@H]2[C@H](C(=O)O)[C@H]21` [LY354740, (+)‐2‐aminobicyclo[3.1.0]hexane‐2,6‐dicarboxylic acid], the oral bioavailability [1] is given as “high” and the oral bioavailability [2] is given as “low”.
For `N[C@@]1(C(=O)O)CS(=O)(=O)[C@H]2[C@H](C(=O)O)[C@H]21` [LY404039], the oral bioavailability [3] is given as “high” and the oral bioavailability [2] is given as “low”.
For `C[C@H](N)C(=O)N[C@@]1(C(=O)O)CC[C@H]2[C@H](C(=O)O)[C@H]21` [LY544344], the “oral bioavailability compared with parent compounds” value [2] is listed as “improved oral bioavailability”.
In the case of `CSCC[C@H](N)C(=O)N[C@@]1(C(=O)O)CS(=O)(=O)[C@H]2[C@H](C(=O)O)[C@H]21` [LY2140023], the “effect on positive and negative symptoms of schizophrenia” value [4] is given as “significantly improved”, the efficacy in schizophrenia (schizophrenia) is given as “failed to demonstrate efficacy” and the “systemic exposure to the prodrug, relative to its parent compound” value [5] is given as “roughly 30%”. The “systemic exposure to the prodrug, share of circulating radioactivity” value [6] was ~15% and the “oral bioavailability compared with parent compounds” value [2] was “improved oral bioavailability”.
In the case of `CC1CCC(C(C)C)C(OC(=O)OC(C)OC(=O)C2C3CC(F)C(N)(C(=O)O)C32)C1` (stereo not drawn) [MGS0274], the stability in serum [7] is reported as “unstable”, the fraction unbound at 5 h [8] is reported as 0.065 to 0.076 and the “metabolite profile of MGS0274” value [9] is reported as “nearly and completely hydrolyzed to MGS0008”. For the same compound, the stability in buffers (Stability in buffers) was “confirmed”, the “metabolite profile of MGS0274” value [10] was “nearly and completely hydrolyzed to MGS0008” and the stability in serum [11] was “stable”. For the same compound, the “metabolite profile of MGS0274” value [12] was “nearly and completely hydrolyzed to MGS0008”, the “Formation rate of MGS0008” value ([13]; human kidney S9 0.25 mg/mL, MGS0274 besylate 10 μmol/L, 37°C, MGS0008 not detected in the reaction mixture) was “no apparent hydrolytic activity” and the stability in serum ([13]; human serum) was “stable”. For the same compound, the fraction unbound at 5 h [14] was 0.039 to 0.043.
In the case of `CC(C)[C@@H]1CC[C@@H](C)C[C@H]1O` [l‐menthol], the acceptable daily intake [15] is listed as 4 mg/kg.
For `COc1ccc2[nH]c([S+]([O-])Cc3ncc(C)c(OC)c3C)nc2c1` (stereo not drawn) [omeprazole, reference compound], the “Fold change of mRNA expression level CYP1A2” value (CYP1A2 mRNA; hepatocyte lot Hu1487) was 35.9 fold, the “Fold change of mRNA expression level CYP1A2” value (CYP1A2 mRNA; hepatocyte lot Hu8114) was 20.7 fold and the “Fold change of mRNA expression level CYP1A2” value (CYP1A2 mRNA; hepatocyte lot Hu8123) was 59.2 fold.
For `CCC1(c2ccccc2)C(=O)NC(=O)NC1=O` [phenobarbital, reference compound], the “Fold change of mRNA expression level CYP2B6” value (CYP2B6 mRNA; hepatocyte lot Hu1487) was 16.4 fold, the “Fold change of mRNA expression level CYP2B6” value (CYP2B6 mRNA; hepatocyte lot Hu8114) was 35.1 fold and the “Fold change of mRNA expression level CYP2B6” value (CYP2B6 mRNA; hepatocyte lot Hu8123) was 45.7 fold.
